Columns and labels:
Erwinia amylovora [1] = format: in vivo; conditions: 6 days post inoculation, 4 ppm, growth chamber
Erwinia amylovora [2] = format: in vivo; conditions: field, 13 days post inoculation, FIG. 5C

With `CCn1cc(C(=O)O)c(=O)c2cc3c(cc21)OCO3` [oxolinic acid] the “inhibition of flower infection relative to untreated control” value (Erwinia amylovora [1]) was 45% and the “inhibition of fire blight symptoms” value (Erwinia amylovora [2]) was 70%.

Reference: patent publication US12667106B2, “Stabilized mutants of quorum quenching lactonase and use thereof in treatment of pathogens” (priority 2019, dated 2026)
